How the values were obtained:
Settings in all cases: incubation time: 72 h
BT-474 [1] = experiment: normalised response (% of control), CellTox Green; higher = less cell death (100 = DMSO, 0 = benzethonium chloride kill control)
Summary of the method: (§1)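 Compound was dispensed into 384-well plates at 5 concentrations in 10-fold steps spanning a 10,000-fold range specific to that compound. Breast cancer cell lines were added as 20 µl suspension and left for 72 h before CellTox Green fluorescence (485/520 nm) and then CellTiter-Glo luminescence, read after 10 min at room temperature. Each reported value is the normalised signal at one concentration, with 0.1 % DMSO set at 100 and a positive kill control at 0 on each plate.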

BT-549 [2] = experiment: as above
Summary of the method: as §1

CAL-120 [3] = experiment: as above
Summary of the method: as §1

CAL-148 [4] = experiment: as above
Summary of the method: as §1

CAL-51 [5] = experiment: as above
Summary of the method: as §1

CAL-85-1 [6] = experiment: as above
Summary of the method: as §1

DU-4475 [7] = experiment: as above
Summary of the method: as §1

HCC1143 [8] = experiment: as above
Summary of the method: as §1

HCC1599 [9] = experiment: as above
Summary of the method: as §1

HCC1937 [10] = experiment: as above
Summary of the method: as §1

HDQ-P1 [11] = experiment: as above
Summary of the method: as §1

Hs578T [12] = experiment: as above
Summary of the method: as §1

MCF-10A [13] = experiment: as above
Summary of the method: as §1

MDA-MB-231 [14] = experiment: as above
Summary of the method: as §1

MDA-MB-436 [15] = experiment: as above
Summary of the method: as §1

MDA-MB-453 [16] = experiment: as above
Summary of the method: as §1

MDA-MB-468 [17] = experiment: as above
Summary of the method: as §1

MFM-223 [18] = experiment: as above
Summary of the method: as §1

BT-474 [19] = experiment: normalised response (% of control), CellTiter-Glo; higher = more viable cells (100 = DMSO, 0 = benzethonium chloride kill control)
Summary of the method: as §1

BT-549 [20] = experiment: as above
Summary of the method: as §1

CAL-120 [21] = experiment: as above
Summary of the method: as §1

CAL-148 [22] = experiment: as above
Summary of the method: as §1

CAL-51 [23] = experiment: as above
Summary of the method: as §1

CAL-85-1 [24] = experiment: as above
Summary of the method: as §1

DU-4475 [25] = experiment: as above
Summary of the method: as §1

HCC1143 [26] = experiment: as above
Summary of the method: as §1

HCC1599 [27] = experiment: as above
Summary of the method: as §1

HCC1937 [28] = experiment: as above
Summary of the method: as §1

HDQ-P1 [29] = experiment: as above
Summary of the method: as §1

Hs578T [30] = experiment: as above
Summary of the method: as §1

MCF-10A [31] = experiment: as above
Summary of the method: as §1

MDA-MB-231 [32] = experiment: as above
Summary of the method: as §1

MDA-MB-436 [33] = experiment: as above
Summary of the method: as §1

MDA-MB-453 [34] = experiment: as above
Summary of the method: as §1

MDA-MB-468 [35] = experiment: as above
Summary of the method: as §1

MFM-223 [36] = experiment: as above
Summary of the method: as §1

SK-BR-3 = experiment: as above
Summary of the method: as §1

| SMILES | normalised response (BT-474 [1]) [%] | normalised response (BT-549 [2]) [%] | normalised response (CAL-120 [3]) [%] | normalised response (CAL-148 [4]) [%] | normalised response (CAL-51 [5]) [%] | normalised response (CAL-85-1 [6]) [%] | normalised response (DU-4475 [7]) [%] | normalised response (HCC1143 [8]) [%] | normalised response (HCC1599 [9]) [%] | normalised response (HCC1937 [10]) [%] | normalised response (HDQ-P1 [11]) [%] | normalised response (Hs578T [12]) [%] | normalised response (MCF-10A [13]) [%] | normalised response (MDA-MB-231 [14]) [%] | normalised response (MDA-MB-436 [15]) [%] | normalised response (MDA-MB-453 [16]) [%] | normalised response (MDA-MB-468 [17]) [%] | normalised response (MFM-223 [18]) [%] | normalised response (BT-474 [19]) [%] | normalised response (BT-549 [20]) [%] | normalised response (CAL-120 [21]) [%] | normalised response (CAL-148 [22]) [%] | normalised response (CAL-51 [23]) [%] | normalised response (CAL-85-1 [24]) [%] | normalised response (DU-4475 [25]) [%] | normalised response (HCC1143 [26]) [%] | normalised response (HCC1599 [27]) [%] | normalised response (HCC1937 [28]) [%] | normalised response (HDQ-P1 [29]) [%] | normalised response (Hs578T [30]) [%] | normalised response (MCF-10A [31]) [%] | normalised response (MDA-MB-231 [32]) [%] | normalised response (MDA-MB-436 [33]) [%] | normalised response (MDA-MB-453 [34]) [%] | normalised response (MDA-MB-468 [35]) [%] | normalised response (MFM-223 [36]) [%] | normalised response (SK-BR-3) [%] |
| --- | --- | --- | --- | --- | --- | --- | --- | --- | --- | --- | --- | --- | --- | --- | --- | --- | --- | --- | --- | --- | --- | --- | --- | --- | --- | --- | --- | --- | --- | --- | --- | --- | --- | --- | --- | --- | --- |
| CC(C)n1cnc2c(NCCc3ccc(O)cc3)nc(-c3csc4ccccc34)nc21 [StemRegenin 1] (1000 nM) | 100 | -112 | 104 | 85.1 | 118 | 118 | 107 | 119 | 96 | 89.9 | 102 | 88.4 | 83.1 | 114 | 110 | 110 | 137 | 81.1 | 108 | 77.9 | 99.9 | 99.3 | 121 | 98.8 | 103 | 110 | 111 | 95.4 | 89.6 | 105 | 94 | 110 | 100 | 102 | 100 | 93.8 | 96.5 |
| O=C(O)CNC(=O)c1c(O)c2ccccc2n(Cc2ccccc2)c1=O [IOX-2] (5000 nM) | 100 | 72.8 | 98.4 | 98.5 | 94.9 | 104 | 103 | 97.1 | 98.2 | 114 | 105 | 58.2 | 84.6 | 66.4 | 93.2 | 110 | 57.3 | – | 95.7 | 96.2 | 101 | 100 | 85.1 | 96.9 | 99.3 | 103 | 114 | 93.3 | 100 | 100 | 104 | 91.3 | 96.7 | 93.1 | 106 | 97.7 | 99.7 |
| CCn1c(C(=O)N(C2CC2)C2CC2)cc2c3c(ncn3C)c(Nc3cc(C)n(C)n3)nc21 (1000 nM) | 98.8 | 94.2 | 96.2 | 87.1 | 98.2 | 102 | 103 | 106 | 89.3 | 120 | 96.2 | 93 | 117 | 102 | 98.2 | 104 | 95.6 | 98.5 | 92.7 | 98.2 | 96.4 | 96.6 | 70.1 | 99.5 | 97.2 | 103 | 124 | 101 | 98.8 | 95.8 | 99.9 | 92.5 | 105 | 92.7 | 85.4 | 95.2 | 101 |
| CN(Cc1cnc2nc(N)nc(N)c2n1)c1ccc(C(=O)N[C@@H](CCC(=O)O)C(=O)O)cc1 [Methotrexate] (5000 nM) | 102 | 125 | 98.9 | 100 | 115 | 102 | 102 | 109 | 98.8 | 110 | 107 | 102 | 107 | 116 | 97.6 | 107 | 129 | 97.5 | 78.1 | 97.8 | 21.1 | 100 | 56.8 | 51.4 | 102 | 83.5 | 97.9 | 31.3 | 51.3 | 110 | 107 | 77.5 | 81.5 | 110 | 99.4 | 104 | 115 |

From the supplement of paper PMC4862054
